What was measured:
[1] = test system: MCF7 breast carcinoma cells; experiment: MTS Assay; format: cell-based; details: Homo sapiens, concentration giving 50% viable cell number
Experimental: MTS assays measures the cytotoxicity of geldanamycin derivatives. MTS (3-(4,5-dimethylthiazol-2-yl)-5-(3-carboxymethoxyphenyl)-2-(4-sulfophenyl)-2H-tetrazolium is a tetrazolium dye that is converted to a formazan product by dehydrogenase enzymes of metabolically active cells (Corey, A. et al. “Use of an aqueous soluble tetrazolium/formazan assay for cell growth assays in culture,” Cancer Commun. 1991, 3, 207–212). Cells were seeded in 96 well plates at 2000 cells/well and allowed to adhere overnight in Dulbecco's modified Eagle's medium supplemented with 10% fetal bovine serum. The final culture volume was 100 μl. Viable cell number was determined by using the Celltiter 96 AQueous Non-radioactive Cell Proliferation Assay (Promega, Madison Wis.). The MTS/PMS (phenazine methosulfate) solution was mixed at a ratio of 20:1, and 20 μL was added per well to 100 μl of culture medium. After 2–4 hours, the formation of the formazan product was measured at 490 nm absorbance using a multiwell plate spectrophotometer. Background was determined by measuring the Abs 490 nm of cell culture medium and MTS-PMS in the absence of cells and was subtracted from all values. Percent viable cells was calculated as follows: % viable cells=(Abs at 490 nm treated cells/Abs at 490 nm untreated cells)×100 […]

[2] = test system: HER2/Neu protein; experiment: HER2 Degradation Assay; format: cell-based; details: Homo sapiens, MCF7, 16 h, MCF7 breast carcinoma cells, 16 h incubation; concentration at which there was 50% degradation of the HER2/Neu protein
Experimental: MCF7 breast carcinoma cells (ATCC) were grown in Dulbecco's modified Eagle's medium (DMEM) containing 10% fetal bovine serum (FBS) and 10 mM HEPES, and plated in 24 well plates (50% confluent). Twenty-four hrs later (cells are 65–70% confluent), test compounds were added and incubated overnight for 16 h. […] The wells were washed with 1 mL phosphate buffered saline (PBS), and 200 μL trypsin was added to each well. After trypsinization was complete, 50 μL of FBS was added to each well. Then 200 μL cells was transferred to 96 well plates. The cells were pipetted up and down to obtain a single cell suspension. The plates were centrifuged at 2,500 rpm for 1 min using a Sorvall Legend RT™ tabletop centrifuge (Kendro Laboratory Products, Asheville, N.C.). The cells were then washed once in PBS containing 0.2% BSA and 0.2% sodium azide (BA buffer). Phycoerythrin (PE) conjugated anti HER2/Neu antibody (Becton Dickinson, #340552), or PE conjugated anti-keyhole limpet hemacyanin [KLH] (Becton Dickinson, #340761) control antibody was added at a dilution of 1:20 and 1:40 respectively (final concentration was 1 μg/mL) and the cells were pipeted up and down to form a single cell suspension, and incubated for 15 mins. The cells were washed twice with 200 μL BA buffer, and resuspended in 200 μL BA buffer, and transferred to FACSCAN tubes with an additional 250 μL BA buffer. Samples were analyzed using a FACSCalibur™ flow cytometer (Becton Dickinson, San Jose, Calif.) equipped with Argon-ion laser that emits 15 mW of 488 nm light for excitation of the PE fluorochrome. 10,000 events were collected per sample. A fluorescence histogram was generated and the mean fluorescence intensity (MFI) of each sample was determined using Cellquest software. The background was defined as the MFI generated from cells incubated with control IgG-PE, and was subtracted from each sample stained with the HER2/Neu antibody. Cells incubated with DMSO was always done as untreated controls since the compounds were resuspended in DMSO. Percent degradation of HER2 was calculated as follows: % HER2 degraded=[(MFl untreated cells−MFl treated cells)/MFl untreated cell]×100
IC50 is defined as the concentration at which there was 50% degradation of the HER2/Neu protein.

| SMILES | IC50 [1] [µM] | IC50 [2] [µM] |
| --- | --- | --- |
| COc1c(C)cnc(Cn2nnc3c(Cl)nc(N)nc32)c1C [Example 1, 7-chloro-3-(4-methoxy-3,5-dimethyl-pyridin-2-ylmethyl)-3H-[1,2,3]triazolo[4,5-d]pyrimidin-5-ylamine] | 8 | 0.4 |
| COc1cc(Cn2nnc3c(Cl)nc(N)nc32)cc(OC)c1OC [Example 5, 7-chloro-3-(3,4,5-trimethoxy-benzyl)-3H-[1,2,3]triazolo[4,5-d]pyrimidin-5-ylamine] | – | 15 |
| COc1cc(Cn2nnc3c(Cl)nc(N)nc32)c(Cl)c(OC)c1OC [Example 6, 7-chloro-3-(2-chloro-3,4,5-trimethoxy-benzyl)-3H-[1,2,3]triazolo[4,5-d]pyrimidin-5-ylamine] | – | 12 |
| COc1c(Cl)c(Cn2nnc3c(Cl)nc(N)nc32)c(Cl)c(OC)c1OC [Example 7, 7-Chloro-3-(2,6-dichloro-3,4,5-trimethoxy-benzyl)-3H-[1,2,3]triazolo[4,5-d]pyrimidin-5-ylamine] | – | 4 |
| COc1cc(Cn2nnc3c(Cl)nc(N)nc32)c(Br)c(OC)c1OC [Example 8, 7-chloro-3-(2-bromo-3,4,5-trimethoxy-benzyl)-3H-[1,2,3]triazolo[4,5-d]pyrimidin-5-ylamine] | – | 6.5 |
| COc1c(Br)c(Cn2nnc3c(Cl)nc(N)nc32)c(Br)c(OC)c1OC [Example 9, 7-Chloro-3-(2,6-dibromo-3,4,5-trimethoxy-benzyl)-3H-[1,2,3]triazolo[4,5-d]pyrimidin-5-ylamine] | – | 6.3 |
| COc1cc(Cn2nnc3c(Cl)nc(N)nc32)c(I)c(OC)c1OC [Example 10, 7-chloro-3-(2-iodo-3,4,5-trimethoxy-benzyl)-3H-[1,2,3]triazolo [4,5-d]pyrimidin-5-ylamine] | – | 10 |
| COc1cc(Cn2nnc3c(Cl)nc(N)nc32)c(Cl)c(OC)c1 [Example 12, 7-chloro-3-(2-chloro-3,5-dimethoxy-benzyl)-3H-[1,2,3]triazolo[4,5-d]pyrimidin-5-ylamine] | – | 8.5 |
| COc1cc(Cn2nnc3c(Cl)nc(N)nc32)c(Br)c(OC)c1 [Example 13, 7-chloro-3-(2-bromo-3,5-dimethoxy-benzyl)-3H-[1,2,3]triazolo[4,5-d]pyrimidin-5-ylamine] | – | 16 |
| COc1cc(Cn2nnc3c(Cl)nc(N)nc32)c(OC)cc1Br [Example 16, 7-chloro-3-(4-bromo-2,5-dimethoxy-benzyl)-3H-[1,2,3]triazolo[4,5-d]pyrimidin-5-ylamine] | – | 22 |
| COc1cc(Cl)c(OC)c(Cn2nnc3c(Cl)nc(N)nc32)c1 [Example 17, 7-chloro-3-(3-chloro-2,5-dimethoxy-benzyl)-3H-[1,2,3]triazolo[4,5-d]pyrimidin-5-ylamine] | – | 19 |

Source: patent publication US7129244B2, “Triazolopyrimidines and related analogs as HSP90-inhibitors” (Conforma Therapeutics Corporation, priority 2003, dated 2006)
